Results from patent US5001064A, “Phosphatidylinositol 4-kinase” (Washington University, priority 1988, dated 1991).
“Also recorded” adds a separate entry of the source.

Tests used:
Assay type in all cases: biochemical, bovine
[1] = biological target: T1, PtdIns 4-kinase (Bos taurus, UniProt A6QLN5); experiment: Specificity of PtdIns 4-kinase for a lipid substrate; conditions: for Relative activity with lipid added: lipid 0.25 mg/ml, organic extractable label, background subtracted, PtdIns (soybean) = 100; for phosphorylation of lipid by the purified enzyme: standard assay buffer with the indicated lipid
T1 construct: It constitutes the major PtdIns 4-kinase activity of bovine uteri; from tissue; host or cells: bovine uterus (acetone powder, purified over ammonium sulfate, Mono Q, S-Sepharose, Mono Q, Mono P and hydroxylapatite)
Procedure: (§1) PtdIns 4-kinase activity was assayed in 60 μl at 30° C. in 20 mM BisTris-HCl (pH 7.0), 10 mM MgCl2, 1.0% Triton X-100, 0.25 mg/ml phosphatidylinositol, and 150 μM ATP (1.25 μCi[-^32 P]ATP), unless otherwise noted. The reaction was terminated by the addition of 12 μl of cold HCl, 120 μl of cold methanol, 150 μl of chloroform, and 40 μl of H2 O. The extracted samples were centrifuged at 12,000 × g for 1 min. and the aqueous layer removed and discarded. When needed, the organic phase was washed with 40 μl of cold methanol and 40 μl of cold 1.0 N HCl, centrifuged at 12,000 × g, and the aqueous layer was removed. The organic phase was then dried under vacuum in a Savant speed-vac, resuspended in 40 μl of chloroform/methanol (2:1), and chromatographed on potassium oxalate-impregnated Silica Gel 60 thin layer chromatography plates (TLC). The solvent system used consisted of chloroform/methanol/ammonium hydroxide/water (51:39.6:3:8.4). For two-dimensional thin layer chromatography, the preceding solvent system was used for the first dimension, and chloroform/methanol/acetic acid/water (50:39:1:10) was used for the second dimension. Standards were visualized by exposing the TLC plate to iodine vapor. The reaction product, phosphatidylinositol 4-phosphate, was visualized by autoradiography, and the corresponding area of the TLC plate was scraped and quantitated by Cherenkov counting. This assay was linear with respect to both protein concentration and time. For tests utilizing [^3 H]PtdIns, the corresponding areas of the TLC plates were scraped and the silica powder was suspended in a gel of Aquasol/H2 O (4:1) before counting. All assays (except column fractions) were done in duplicate or triplicate.
The specificity of PtdIns 4-kinase for lipid substrates was also examined using standard assay buffer containing […] of the indicated lipid. After extraction the organic phase was washed three times, dried in vacuo, and the organic extractable label was quantitated. Control reactions (no lipid) established background levels which were then subtracted from the experimentally derived values (Table III). […] The sensitivity of the above technique was limited and appeared to show little or no activity with lyso-PtdIns; however, subsequent TLC of these reactions established that the enzyme would phosphorylate lyso-PtdIns about 10% as well as soybean Ptdlns. […] Except for lyso-Ptdlns, the results presented in Table III were confirmed by thin layer chromatography.

[2] = biological target: T1, PtdIns 4-kinase; experiment: Specificity of PtdIns 4-kinase for a nucleotide phosphoryl donor ([3H]PtdIns as substrate); conditions: for utilization as phosphoryl donor (words): [3H]PtdIns as substrate; for activity at 150 µM: read-out: Relative activity with nucleotide donor
Procedure: as §1, with “This assay was linear with respect to both protein concentration and time.” left out

[3] = biological target: T1, PtdIns 4-kinase; experiment: Effect of potential inhibitors on PtdIns 4-kinase activity; conditions: for effectiveness as inhibitor / relative activity at 1000 µM / Relative activity with potential inhibitor: PtdIns 0.1 mg/ml; for effectiveness as inhibitor: soluble compounds approximately 10-fold above the PtdIns concentration; for relative activity at 1000 µM: read-out: Relative activity with potential inhibitor, heading: Relative activity with potential inhibitor; for inhibition: approximately 5-fold molar excess over PtdIns (0.1 mg/ml)
Procedure: as §1, with “This assay was linear with respect to both protein concentration and time.” left out
Various PtdIns-related compounds were tested as possible inhibitors of this purified PtdIns 4-kinase. A concentration of PtdIns of 0.1 mg/ml was used in these tests to accentuate possible competitive inhibition by potential inhibitors (Table IV).

[4] = nucleotide donor 150 μM, ATP = 100

T1 sequence (A6QLN5 1-479): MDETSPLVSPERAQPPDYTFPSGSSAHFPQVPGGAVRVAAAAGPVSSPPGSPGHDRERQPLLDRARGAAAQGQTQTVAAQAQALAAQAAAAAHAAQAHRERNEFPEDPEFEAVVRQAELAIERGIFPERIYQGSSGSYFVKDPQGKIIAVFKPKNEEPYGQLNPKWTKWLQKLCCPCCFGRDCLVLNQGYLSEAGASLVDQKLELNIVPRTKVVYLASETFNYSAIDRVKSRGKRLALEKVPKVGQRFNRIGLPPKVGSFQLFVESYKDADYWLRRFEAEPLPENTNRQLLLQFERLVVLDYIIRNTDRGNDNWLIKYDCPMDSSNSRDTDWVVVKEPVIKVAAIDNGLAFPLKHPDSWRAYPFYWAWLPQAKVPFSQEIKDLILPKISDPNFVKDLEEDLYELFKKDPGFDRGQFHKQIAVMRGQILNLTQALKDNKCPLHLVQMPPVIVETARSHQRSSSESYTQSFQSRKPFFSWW

CCCCC/C=C\C/C=C\C/C=C\C/C=C\CCCC(=O)O[C@@H](CO)COC(=O)CCCCCCCCCCCCCCCCC [1-Stearoyl-2-arachidonoyl-sn-glycerol]
Relative activity with lipid added [1]: 0%
phosphorylation of lipid by the purified enzyme [1]: lacked diacylglycerol kinase activity

Nc1ncnc2c1ncn2[C@@H]1O[C@H](COP(=O)(O)OP(=O)(O)O)[C@@H](O)[C@H]1O [ADP]
utilization as phosphoryl donor (words) [2]: No PtdIns-4-P was observed; also recorded: No PtdIns-4-P 5-kinase activity was present
activity at 150 µM [2, 4]: 12%

Nc1ccn([C@@H]2O[C@H](COP(=O)(O)OP(=O)(O)OP(=O)(O)O)[C@@H](O)[C@H]2O)c(=O)n1 [CTP]
utilization as phosphoryl donor (words) [2]: No PtdIns-4-P was observed; also recorded: No PtdIns-4-P 5-kinase activity was present
activity at 150 µM [2, 4]: 10%

Nc1nc2c(ncn2[C@@H]2O[C@H](COP(=O)(O)OP(=O)(O)OP(=O)(O)O)[C@@H](O)[C@H]2O)c(=O)[nH]1 [GTP]
utilization as phosphoryl donor (words) [2]: No PtdIns-4-P was observed; also recorded: No PtdIns-4-P 5-kinase activity was present
activity at 150 µM [2, 4]: 5%

O=P(O)(OCC(O)CO)O[C@@H]1[C@H](O)[C@H](O)[C@@H](O)[C@H](O)[C@H]1O (stereo partly drawn) [Glycerophospho-D-myo-inositol]
effectiveness as inhibitor [3]: ineffective as inhibitors
relative activity at 1000 µM ([3]; inhibitor 1.0 mM): 86%

O=c1[nH]cnc2c1ncn2[C@@H]1O[C@H](COP(=O)(O)OP(=O)(O)OP(=O)(O)O)[C@@H](O)[C@H]1O [ITP]
utilization as phosphoryl donor (words) [2]: No PtdIns-4-P was observed; also recorded: No PtdIns-4-P 5-kinase activity was present
activity at 150 µM [2, 4]: 11%

OC1C(O)C(O)C2(CO2)C(O)C1O (stereo not drawn) [Inositol 2,2'-anhydro-2-C-hydroxymethyl]
effectiveness as inhibitor [3]: ineffective as inhibitors
relative activity at 1000 µM ([3]; inhibitor 1.0 mM): 118%

O=P(O)(O)O[C@H]1[C@H](O)[C@@H](O)[C@H](OP(=O)(O)O)[C@@H](O)[C@H]1O [Ins-1,4-P2]
effectiveness as inhibitor [3]: ineffective as inhibitors
Relative activity with potential inhibitor ([3]; inhibitor 1.0 mM): 98%

O=P(O)(O)OC1[C@H](O)[C@H](O)C(O)[C@H](O)[C@H]1O (stereo partly drawn) [Ins-1-P]
effectiveness as inhibitor [3]: ineffective as inhibitors
Relative activity with potential inhibitor ([3]; inhibitor 1.0 mM): 89%

CCCCCCCCCCCCCCCC(=O)OC[C@H](COP(=O)(O)O[C@H]1[C@H](O)[C@@H](O)[C@H](OP(=O)(O)O)[C@@H](OP(=O)(O)O)[C@H]1O)OC(=O)CCCCCCCCCCCCCCC [PtdIns-4,5-P2, phosphatidylinositol 4,5-diphosphate]
effectiveness as inhibitor [3]: Neither PtdIns-4-P or PtdIns-4,5-P2 were effective inhibitors
inhibition [3]: 59%
Relative activity with potential inhibitor ([3]; inhibitor 0.02 mg/ml): 109%
Relative activity with potential inhibitor ([3]; inhibitor 0.10 mg/ml): 101%
Relative activity with potential inhibitor ([3]; inhibitor 0.50 mg/ml): 41%
Relative activity with lipid added [1]: 0%
phosphorylation of lipid by the purified enzyme [1]: nor would it phosphorylate

Cc1cn([C@H]2C[C@H](O)[C@@H](COP(=O)(O)OP(=O)(O)OP(=O)(O)O)O2)c(=O)[nH]c1=O [TTP]
Relative activity with nucleotide donor [2, 4]: 3

O=c1ccn([C@@H]2O[C@H](COP(=O)(O)OP(=O)(O)OP(=O)(O)O)[C@@H](O)[C@H]2O)c(=O)[nH]1 [UTP]
utilization as phosphoryl donor (words) [2]: A small amount of PtdIns-4-P was observed
activity at 150 µM [2, 4]: 18%

Nc1ncnc2c1ncn2[C@H]1C[C@H](O)[C@@H](COP(=O)(O)OP(=O)(O)OP(=O)(O)O)O1 [dATP, 2'-deoxy-ATP]
utilization as phosphoryl donor (words) ([2]; listed as 2'-deoxy-ATP): utilized
utilization as phosphoryl donor (words) ([2]; listed as 2-deoxy-ATP): utilized; also recorded: will utilize
activity at 150 µM [2, 4]: 104%

Nc1ncnc2c1ncn2[C@H]1CC[C@@H](COP(=O)(O)OP(=O)(O)OP(=O)(O)O)O1 [ddATP, 2,3-Dideoxy-ATP]
utilization as phosphoryl donor (words) ([2]; listed as 2,3-Dideoxy-ATP): partially effective
utilization as phosphoryl donor (words) ([2]; listed as 2,3-dideoxy-ATP): to a lesser degree will utilize
activity at 150 µM [2, 4]: 39%

L-α-lysophosphatidylinositol [Lyso-PtdIns]
phosphorylation relative to soybean PtdIns, by subsequent TLC ([1]; TLC of the reactions): about 10%
Relative activity with lipid added [1]: 0%

L-α-phosphatidyl-L-serine [Phosphatidylserine]
Relative activity with lipid added [1]: 1%
phosphorylation of lipid by the purified enzyme [1]: no phosphorylation

L-α-phosphatidylcholine
Relative activity with lipid added [1]: 0%
phosphorylation of lipid by the purified enzyme [1]: no phosphorylation

L-α-phosphatidylethanolamine
Relative activity with lipid added [1]: 0%
phosphorylation of lipid by the purified enzyme [1]: no phosphorylation

Phosphatidylinositol [PtdIns (bovine)]
Relative activity with lipid added [1]: 110%
phosphorylation of lipid by the purified enzyme [1]: able to phosphorylate

Phosphatidylinositol [PtdIns (soybean)]
Relative activity with lipid added [1]: 100%
phosphorylation of lipid by the purified enzyme [1]: able to phosphorylate

galactocerebrosides (mixed)
Relative activity with lipid added [1]: 0%
phosphorylation of lipid by the purified enzyme [1]: would not phosphorylate

glucocerebrosides
Relative activity with lipid added [1]: 0%
phosphorylation of lipid by the purified enzyme [1]: would not phosphorylate

phosphatidylinositol 4-phosphate [PtdIns-4-P]
effectiveness as inhibitor [3]: Neither PtdIns-4-P or PtdIns-4,5-P2 were effective inhibitors
inhibition [3]: 42%
Relative activity with potential inhibitor ([3]; inhibitor 0.02 mg/ml): 99%
Relative activity with potential inhibitor ([3]; inhibitor 0.10 mg/ml): 105%
Relative activity with potential inhibitor ([3]; inhibitor 0.50 mg/ml): 58%
Relative activity with lipid added [1]: 0%
phosphorylation of lipid by the purified enzyme [1]: lacked detectable PtdIns-4-P 5-kinase activity
